Source: US5192799A, “Coumaran group containing amine compounds and their acid addition salts and quaternary ammonium salts and the use thereof as anti arrhythmic agents and as psychotropic agents” (Mitsui Petrochemical Industries, Ltd., priority 1987, dated 1993)
Like-named read-outs stand apart in the source and are kept apart here.

How the values were obtained:
[1] = system: Purkinje fiber; test: Effect on APD (APD75, field-stimulated right ventricular free wall); assay type: cell-based, adult mongrel dog; details: 20 minutes incubation, 37° C., 1 Hz, control before drug = 100%; for activation at 1 µg/mL / activation at 3 µg/mL / activation at 10 µg/mL: Canis lupus familiaris, purkinje, 20 min, read-out: APD75 % (percent change in APD75); for activation at 10 µg/mL: dose 10 μg/ml
Method in brief: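 Right ventricular free wall from pentobarbital-anaesthetized adult mongrel dog, held in Tyrode's solution at 37° C. with 1 Hz field stimulation. Purkinje fiber action potentials recorded by intracellular glass microelectrodes; APD75 measured after 20 minutes drug perfusion, expressed as percent change versus pre-drug control (100%).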

[2] = in vivo; details: mouse, in vivo
Experimental: By using male ddY-strain 5-week old mice (3 to 4 per group), the compounds of general formula (1) were each administered orally or intraperitoneally as a solution in saline or as a suspension in methyl cellulose, and 24 hours after the administration, the toxicity of the compounds was evaluated.

[3] = system: atrial fibrillation; test: Atrial fibrillation model; assay type: in vivo, mongrel dog; details: dose of 0.3 to 3 mg/kg or 1 to 10 mg/kg
Source text: Furthermore, the anaethetized dog was cut open at the chest. Bipolar electrodes were sutured to the right atrial surface, and stimulation electrodes were attached to the vagus nerves at both sides of the cervical region. Atrial fibrillation was induced by the method of Goldberger et al. A. L. Goldberger et al.: […] Further, the anaethetized dog was cut open at the chest. Left anterior descending coronary artery was ligated, and ninety minutes later, reperfused to prepare a myocardial infarction which was liable to develop tachycardia. At that time, a bipolar plunge electrode was placed in the interventricular septum near the ligated site. Several days after the operation, programmed electrical stimulation was applied to induce tachycardia. The effect of the drug to cause disappear of tachycardia was examined. In an anaethetized and open-chested mongrel dog, bipolar electrodes (silver and silver-silver chloride electrodes) were sutured respectively to the right atrium for stimulation and recording. The vagus nerves on both sides of the cervical region were isolated and cut, and stimulation electrodes were attached to the peripheral end. The atrial fibrillation was induced in accordance with the method of Goldberger et al. After cardiac arrest induced by stimulating the vagus nerves, electrical stimulation was applied to the right atria at a high frequency.

[4] = system: right ventricle (effective refractory period); test: Activity on ERP of the right ventricle; assay type: in vivo, adult mongrel dog; details: Canis lupus familiaris, ERP before drug = 100%, read-out: ERP % (ERP prolonging activity); for change in vivo at 3 mg/kg: 3 mg/kg i.v.
Method in brief: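 Anaesthetized open-chest mongrel dogs, right ventricle paced at 400 msec interval (4 msec, twice diastolic threshold) after alcohol ablation of sinus pacemaker. ERP defined by loss of response to first stimulus of a 10-stimulus train; drug given intravenously or intraduodenally, ERP expressed as % of pre-dose.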

[5] = target: T1, serotonine 2 receptor (Rattus norvegicus, UniProt P14842); test: [3H]ketanserin binding assay (affinity for serotonine 2 receptor); set-up: species or system Wistar male rat; details: rat frontal cortex, 1 nM [3H] ketanserin, 37° C., 10 minutes
T1 construct: frontal cortex fraction prepared from the brain of a Wistar male rat; from tissue; host or cells: rat brain frontal cortex (Wistar, male), membrane fraction
Experimental: (§1) Striatal membranes fractions were prepared from a rat brain, and the affinity of the compounds of this invention on dopamine 2 receptors was determined by using [^3 H] spiperone assay from membranes fractions as an index. Moreover, frontal cortex membranes were prepared from a rat brain, and the affinity of the test drugs on serotonine 2 receptor was determined by using [^3 H] ketenserin binding assay. It was shown that the compounds of general formula (1) of the invention have marked anti-dopamine activity and anti-serotonine activity.
[^3 H] ketanserin binding assay
The affinity of the compound of the invention was determined on the basis of the ability to substitute [^3 H] ketanserin from a frontal cortex fraction prepared from the brain of a Wistar male rat.
(§2) The rat was decapitated, and the brain was obtained. The frontal cortex was homogenized in 40 volumes of 50 mM Tris-HCl buffer (pH 7.6), and then centrifuged. The pellets were again homogenized in 100 volumes of the same buffer, and used in a binding test. The binding test was conducted by the following procedure.
(§3) The frontal cortex (original tissue weight 1 mg/ml), 100 microliters of a test drug and 1 nM of [^3 H] ketanserin were incubated at 37° C. for 10 minutes in 50 mM Tris-HCl buffer (pH 7.6). Then, the reaction mixture was suction-filtered through a glass fiber filter (Watmann GF/B) and washed with a buffer three times.
(§4) The filter was put in a scintillation cocktail (ACSII, Amersham Co.), and after mixing, left to stand overnight. The radioactivity held on the filter was measured by a liquid scintillation counter. The nonspecific binding was measured in the presence of 1 μM of methysergide. The concentration of the test drug which inhibited 50% of a specific binding was determined from the graph and defined as IC5. Ki was calculated from the following equation. [formula]

[6] = target: T2, dopamine 2 receptor (Rattus norvegicus, UniProt P61169); test: [3H]spiperone binding assay (affinity for dopamine 2 receptor); set-up: species or system Wistar-strain male rat; details: rat striatal membranes, 0.5 nM [3H] spiperone, 37° C., 10 minutes
T2 construct: membrane fractions prepared from the brain a Wistarstrain male rat; from tissue; host or cells: rat brain striatum (Wistar, male), membrane fraction
Experimental: as §1
[^3 H]spiperone binding assay
The affinity of the compounds of this invention to the dopamine 2 receptor was determined on the basis of the ability to substitute [^3 H] spiperone from stratal membrane fractions prepared from the brain a Wistarstrain male rat.
as §2, with “striatum” for “frontal cortex”, “50” for “100”
as §3, with “The stria” for “The frontal cortex”, “weight 20” for “weight 1”, “and 0.5” for “and 1”, “H] spiperone” for “H] ketanserin”
as §4, with “(+) butaclamol.” for “methysergide.”, “IC50.” for “IC5.”

[7] = system: Quipazine-induced head twitching of mice; test: Quipazine-induced head twitching (anti-5-HT activity); assay type: in vivo, ddY-strain male mice; details: 1 mg/kg i.p.
Source text: The effects of the compounds of general formula (1) on the apomorphine-induced climbing behavior of mice (i.e. anti-dopamine activity) and the effects of the test drugs of the invention on the quipazine-induced head twitching of mice (i.e. anti-serotonine activity) were also examined. It was made clear that the compounds of this invention represented by general formula (1) have marked anti-dopamine activity and anti-serotonine activity both in vivo and in vitro, and have potentiality as an anti-psychotic agent, an anti-depressant, an antianxiety agent, a sedative or as an anti-dementia agent.
By using 5 week old ddY-strain male mice (10 per group), the anti-dopamine (anti-DA hereinafter) and anti-serotonine (anti-5-HT hereinafter) activities were examined by the following procedures. All does of test drugs were adjusted to 1 mg/ml. They were each suspended in 0.5% carboxymethyl cellulose (CMC)/saline so that their volume administered was 0.1 ml/10 g. The suspension was administered intraperitoneally.
2. Effect of quipazine on the head twitch (anti-5-HT activity):
Quipazine (3 mg/kg) was administered intraperitoneally 30 minutes after the intraperitoneal administration of each test drug. After the lapse of 10 minutes, 20 minutes and 30 minutes from then, the number of head twitchings of each mouse which occurred for 2 minutes was counted.

[8] = po, LD50 p.o., p.o., 24 hours after administration, male ddY mice

T2 sequence (P61169 whole entry): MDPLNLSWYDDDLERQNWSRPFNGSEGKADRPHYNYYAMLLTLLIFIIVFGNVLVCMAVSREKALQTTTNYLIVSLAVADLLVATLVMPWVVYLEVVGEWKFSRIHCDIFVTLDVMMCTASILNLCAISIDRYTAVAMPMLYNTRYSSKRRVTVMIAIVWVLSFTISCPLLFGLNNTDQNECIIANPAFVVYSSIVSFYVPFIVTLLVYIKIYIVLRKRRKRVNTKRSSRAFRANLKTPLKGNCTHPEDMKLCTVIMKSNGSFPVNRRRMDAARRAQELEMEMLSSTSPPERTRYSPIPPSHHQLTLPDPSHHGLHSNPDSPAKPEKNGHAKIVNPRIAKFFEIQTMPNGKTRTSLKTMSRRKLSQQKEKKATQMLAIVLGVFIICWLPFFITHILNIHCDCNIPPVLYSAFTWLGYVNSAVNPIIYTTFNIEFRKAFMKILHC
T1 sequence (P14842 whole entry): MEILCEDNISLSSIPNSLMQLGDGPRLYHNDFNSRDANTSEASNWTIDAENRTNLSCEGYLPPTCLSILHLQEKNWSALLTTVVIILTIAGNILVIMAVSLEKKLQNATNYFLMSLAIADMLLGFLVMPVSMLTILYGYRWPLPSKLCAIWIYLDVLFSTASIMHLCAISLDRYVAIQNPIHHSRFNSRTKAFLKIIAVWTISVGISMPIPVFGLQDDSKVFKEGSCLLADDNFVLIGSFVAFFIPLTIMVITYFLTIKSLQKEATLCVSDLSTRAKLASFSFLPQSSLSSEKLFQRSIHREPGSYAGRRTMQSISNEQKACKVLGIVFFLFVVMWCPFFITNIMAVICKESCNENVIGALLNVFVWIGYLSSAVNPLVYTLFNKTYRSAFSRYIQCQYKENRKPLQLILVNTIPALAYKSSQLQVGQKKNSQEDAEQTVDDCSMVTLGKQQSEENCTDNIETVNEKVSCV

| Structure (SMILES) | LD50 at 24 h [2, 8] [mg/kg] | disappearance of atrial fibrillation [3] | change in vivo at 0.1 mg/kg ([4]; iv, 0.1 mg/kg i.v.) [%] | change in vivo at 0.3 mg/kg ([4]; iv, 0.3 mg/kg i.v.) [%] | change in vivo at 1 mg/kg ([4]; iv, 1 mg/kg i.v.) [%] | activation at 1 µg/mL ([1]; dose 1 μg/ml) [%] | activation at 3 µg/mL ([1]; dose 3 μg/ml) [%] | activation at 10 µg/mL [1] [%] | change in vivo at 3 mg/kg ([4]; iv) [%] | Ki [5] [nM] | Ki [6] [nM] | further results |
| --- | --- | --- | --- | --- | --- | --- | --- | --- | --- | --- | --- | --- |
| CCCCCCCN(CC)CCCOc1ccc2c(c1)OCC2=O.Cl [Compound 102, 6-3-(N-ethyl-N-heptylamino)propyloxycoumaran-3-one hydrochloride] | ~300 | could cause disappearance fibrillation | 11.7 ± 3.2 | 21.3 ± 3.3 | 23.3 ± 2.9 | – | – | – | – | – | – | APD75 % (percent change in APD75) ([1]; dose 1 μg/ml): 20%; APD75 % (percent change in APD75) ([1]; dose 3 μg/ml): 30%; LD50 at 24 h ([2]; ip, LD50 i.p., i.p., 24 hours after administration, male ddY mice): ~100 mg/kg; change in vivo at 0.1 mg/kg ([4]; 0.1 mg/kg i.d.): 0%; change in vivo at 0.3 mg/kg ([4]; 0.3 mg/kg i.d.): 13%; change in vivo at 1 mg/kg ([4]; 1 mg/kg i.d.): 27% |
| CCCCN(CCCC)CCCOc1ccc2c(c1)OCC2=O [Compound 144] | – | could cause disappearance fibrillation | 10 ± 1.7 | 15.5 ± 4.9 | 21.1 ± 6.2 | 13 | 26 | 33 | – | – | – | – |
| CC1CCCN(CCCOc2ccc3c(c2)OCC3=O)C1 (stereo not shown) [Compound 1118] | > 300 | could cause disappearance fibrillation | 5 | 9 | 22 | 10 | 13 | 24 | 26 | – | – | – |
| CC1CCCC(C)N1CCCOc1ccc2c(c1)OCC2=O (stereo not shown) [Compound 1126] | > 300 | could cause disappearance fibrillation | – | 8 | 12 | – | 19 | 27 | 15 | – | – | – |
| O=C1COc2cc(OCCCN3CCC(Cc4ccccc4)CC3)ccc21 [Compound 1146] | > 300 | could cause disappearance fibrillation | 4 | 16 | 20 | 18 | 25 | 34 | – | 441 | > 400 | – |
| O=C1COc2cc(OCCCN3CCC(O)(c4ccccc4)CC3)ccc21 [Compound 1150] | – | – | – | – | – | 4 | 12 | 14 | – | 306 | > 400 | LD50 at 24 h ([2]; po): > 300 mg/kg |
| O=C1COc2cc(OCCCN3CCN(c4ccccc4)CC3)ccc21 [Compound 1256] | – | – | – | – | – | – | – | – | – | 175 | 286 | Percent inhibition of quipazine-induced head twitching [7]: 43%; Quipazine-induced head twitching ([7]; control 6.7 ± 0.8, **p < 0.05, ***p < 0.001): 3.8 ± 0.9 number/2 min. |
| CS(=O)(=O)NC1CCN(CCCOc2ccc3c(c2)OCC3=O)CC1 [Compound 1286] | > 300 | – | 8.3 | 8.3 | 16.6 | – | 7 | – | 16.6 | 475 | > 400 | – |
| O=C1COc2cc(OCCCN3CCC4(CC3)OCCO4)ccc21 [Compound 1298] | > 300 | – | – | – | – | – | – | – | – | 382 | > 400 | – |
| CC(=O)Oc1coc2cc(OCCCN3CCC(Cc4ccccc4)CC3)ccc12 [Compound 1344] | – | – | – | – | – | – | – | – | – | > 600 | > 400 | – |
